Measurements taken from PMC11984392, “EphA2-targeted alpha-particle theranostics for enhancing PDAC treatment” (Theranostics, 2025).
Read-outs that look alike come from different tables or passages of the source. *1 amine or outer side, *2 acyl side, *3 side chain or, on linkers, in order; H or OH if unused. Where a SMILES comes first, the peptide text is derived from it. Bridges are numbered along the chain shown (N, C = ends). [ ]: non-standard residue; d: D form. The star is where a group is joined. TATA = O=C(CC[*:1])N1CN(C(=O)CC[*:2])CN(C(=O)CC[*:3])C1; NOTA = O=C(O)CN1CCN(CC(=O)O)CCN(CC(=O)*)CC1; Hyp = O=C(O)[C@@H]1C[C@@H](O)CN1; hArg = N=C(N)NCCCC[C@H](N)C(=O)O; PEG2 = NCCOCCOCCC(=O)O; Sar = CNCC(=O)O

Key:
[1] = PET tumor uptake (SUV) of [68Ga]AJ201; format: in vivo; conditions: total radioactivity
Ex vivo biodistribution = assay: Ex vivo biodistribution; set-up: species or system NSG mice; conditions: both sexes, NSG, mouse, in vivo, iv, 80 uCi, total radioactivity, mean ± SEM (n = 4 or 5); for tissue uptake at 5 min / tissue to tissue ratio at 5 min: 5 min p.i.; for tissue uptake at 5 min / tissue uptake at 0.5 h / tissue uptake at 1 h / tissue uptake at 1.5 h / tissue uptake at 2 h: i.v.; for tissue to tissue ratio at 5 min / tissue to tissue ratio at 0.5 h / tissue to tissue ratio at 1 h / tissue to tissue ratio at 1.5 h: dimensionless; for tissue uptake at 0.5 h / tissue to tissue ratio at 0.5 h: 30 min p.i.; for tissue uptake at 1 h / tissue to tissue ratio at 1 h: 60 min p.i.; for tissue uptake at 1.5 h / tissue to tissue ratio at 1.5 h: 90 min p.i.; for tissue uptake at 2 h: 120 min p.i.
Procedure: Animal studies were performed under Johns Hopkins University Animal Care and Use Committee (ACUC)-approved protocol (Principal investigator: Sridhar Nimmagadda, Ph.D. and Protocol number M021M175). Male and Female NSG mice (5-6 weeks old) were purchased from JHU immunocompromised core and used to establish xenografts by administering cells subcutaneously (top right flank, unless otherwise noted) to form various tumor models within 3-4 weeks. Following cell numbers were used: Panc1, AsPC1, BxPC3 (1 M), Hs766T and SU8686 (2 M), CFPAC and Panc1005 (5 M). Imaging or biodistribution studies (n = 3-5) were conducted on mice with tumor volumes of 100-200 mm^3. The Panc1 orthotopic tumor model was established by surgically implanting a 3-5 mm^3 section of Panc1 tumor xenograft directly onto the pancreas. The implanted tumors were allowed to grow and were ready for imaging after 10 days of implantation.
Mice with 100-200 mm^3 tumor volume were used for ex vivo biodistribution studies. For radiotracer pharmacokinetics and dosimetry studies, mice with Panc1 tumor xenograft received ~80 µCi (2.96 MBq) [^68Ga]AJ201 and were sacrificed at pre-determined time points (5, 30, 60, 90 and 120 min). All other mice were injected with ~50 µCi (1.85 MBq; 0.2 to 0.5 nmol) Ga-68 labeled radiotracer and were sacrificed at 60 min. The selected tissues were collected, weighed, counted, and their %ID/g values calculated for biodistribution analysis. For pharmacokinetics and dosimetry studies, selected tissues included blood, muscle, tumor, thymus, heart, lung, liver, pancreas, stomach, small intestine, large intestine, spleen, adrenals, kidney, bladder, femur, brain and tumor xenografts. For other studies, selected tissues were blood, muscle, tumor, heart, lung, liver, pancreas, small intestine, spleen, kidney.

[2] = read-out: Stomach with contents uptake

**Q.** For `CC(C)C[C@@H]1NC(=O)[C@@H]2CSCCC(=O)N3CN(CN(C3)C(=O)CCSC[C@H](NC(=O)[C@H](CC(=O)O)NC(=O)[C@H](CCCCNC(=N)N)NC(=O)[C@H](C)NC(=O)CNC(=O)CN(C)C(=O)CN(C)C(=O)CN(C)C(=O)[C@H](CCCNC(=N)N)NC(=O)CNC(=O)CCOCCOCCNC(=O)CN3CCN(CC(=O)O)CCN(CC(=O)O)CC3)C(=O)N3C[C@H](O)C[C@H]3C(=O)N[C@@H](CC(C)C)C(=O)N[C@@H](C(C)C)C(=O)N[C@@H](CC(N)=O)C(=O)N3CCC[C@H]3C(=O)N[C@@H](CC(C)C)C(=O)N2)C(=O)CCSC[C@@H](C(N)=O)NC(=O)[C@H](CCCCNC(=N)N)NC(=O)[C@H](Cc2c[nH]c3ccccc23)NC(=O)[C@@H](CC(=O)O)NC(=O)[C@@H]2CCCN2C(=O)[C@H](Cc2c[nH]cn2)NC1=O` [[^68Ga]AJ201, metal not drawn] ({NOTA-PEG2}-GR[Sar][Sar][Sar]GA[hArg]DC[Hyp]LVNPLCLHP[dD]W[hArg]C-NH2; linker 10-17-24 via TATA), which SUV [1] is on record?
**A.** 1.31 ± 0.11 SUV

**Q.** What about the tissue uptake at 5 min (Ex vivo biodistribution; read-out: Blood uptake) of the same compound?
**A.** 8.2 ± 0.92 %ID/g

**Q.** What about the tissue uptake at 5 min (Ex vivo biodistribution; read-out: Brain uptake) of the same compound?
**A.** 0.4 ± 0.08 %ID/g

**Q.** What about the tissue uptake at 5 min (Ex vivo biodistribution; read-out: Heart uptake) of the same compound?
**A.** 4.19 ± 1.06 %ID/g

**Q.** What about the tissue uptake at 5 min (Ex vivo biodistribution; read-out: Liver uptake) of the same compound?
**A.** 4.25 ± 0.99 %ID/g

**Q.** And the tissue uptake at 5 min (Ex vivo biodistribution; read-out: Lung uptake)?
**A.** 8.24 ± 0.93 %ID/g

**Q.** And the tissue uptake at 5 min (Ex vivo biodistribution; read-out: Muscle uptake)?
**A.** 1.79 ± 0.24 %ID/g

**Q.** And the tissue uptake at 5 min (Ex vivo biodistribution; read-out: Pancreas uptake)?
**A.** 3.24 ± 0.08 %ID/g

**Q.** What about the tissue uptake at 5 min (Ex vivo biodistribution; [2]) of the same compound?
**A.** 1.8 ± 0.39 %ID/g

**Q.** And the tissue uptake at 5 min (Ex vivo biodistribution; read-out: Thymus uptake)?
**A.** 4.61 ± 0.51 %ID/g

**Q.** What about the tissue uptake at 5 min (Ex vivo biodistribution; read-out: Tumor uptake) of the same compound?
**A.** 7.06 ± 0.48 %ID/g

**Q.** What about the tissue to tissue ratio at 5 min (Ex vivo biodistribution; read-out: Tumor/Muscle ratio) of the same compound?
**A.** 4.12 ± 0.66

**Q.** What about the tissue to tissue ratio at 5 min (Ex vivo biodistribution; read-out: Tumor/Pancreas ratio) of the same compound?
**A.** 2.18 ± 0.14

**Q.** And the tissue to tissue ratio at 5 min (Ex vivo biodistribution; read-out: Tumor/blood ratio)?
**A.** 0.89 ± 0.14

**Q.** And the tissue uptake at 0.5 h (Ex vivo biodistribution; read-out: Blood uptake)?
**A.** 1.61 ± 0.18 %ID/g

**Q.** What about the tissue uptake at 0.5 h (Ex vivo biodistribution; read-out: Brain uptake) of the same compound?
**A.** 0.09 ± 0.01 %ID/g

**Q.** And the tissue uptake at 0.5 h (Ex vivo biodistribution; read-out: Heart uptake)?
**A.** 0.97 ± 0.15 %ID/g

**Q.** What about the tissue uptake at 0.5 h (Ex vivo biodistribution; read-out: Liver uptake) of the same compound?
**A.** 1.15 ± 0.19 %ID/g

**Q.** What about the tissue uptake at 0.5 h (Ex vivo biodistribution; read-out: Lung uptake) of the same compound?
**A.** 2.29 ± 0.26 %ID/g

**Q.** What about the tissue uptake at 0.5 h (Ex vivo biodistribution; read-out: Muscle uptake) of the same compound?
**A.** 1.11 ± 0.34 %ID/g

**Q.** And the tissue uptake at 0.5 h (Ex vivo biodistribution; read-out: Pancreas uptake)?
**A.** 0.74 ± 0.1 %ID/g

**Q.** What about the tissue uptake at 0.5 h (Ex vivo biodistribution; [2]) of the same compound?
**A.** 0.77 ± 0.31 %ID/g

**Q.** And the tissue uptake at 0.5 h (Ex vivo biodistribution; read-out: Thymus uptake)?
**A.** 2.35 ± 0.66 %ID/g

**Q.** And the tissue uptake at 0.5 h (Ex vivo biodistribution; read-out: Tumor uptake)?
**A.** 6.96 ± 0.31 %ID/g

**Q.** And the tissue to tissue ratio at 0.5 h (Ex vivo biodistribution; read-out: Tumor/Muscle ratio)?
**A.** 6.4 ± 3.6

**Q.** And the tissue to tissue ratio at 0.5 h (Ex vivo biodistribution; read-out: Tumor/Pancreas ratio)?
**A.** 7.08 ± 2.57

**Q.** And the tissue to tissue ratio at 0.5 h (Ex vivo biodistribution; read-out: Tumor/blood ratio)?
**A.** 3.31 ± 1.17

**Q.** What about the tissue uptake at 1 h (Ex vivo biodistribution; read-out: Blood uptake) of the same compound?
**A.** 0.49 ± 0.07 %ID/g

**Q.** What about the tissue uptake at 1 h (Ex vivo biodistribution; read-out: Brain uptake) of the same compound?
**A.** 0.04 ± 0.01 %ID/g

**Q.** What about the tissue uptake at 1 h (Ex vivo biodistribution; read-out: Heart uptake) of the same compound?
**A.** 0.29 ± 0.08 %ID/g

**Q.** And the tissue uptake at 1 h (Ex vivo biodistribution; read-out: Liver uptake)?
**A.** 0.32 ± 0.02 %ID/g

**Q.** What about the tissue uptake at 1 h (Ex vivo biodistribution; read-out: Lung uptake) of the same compound?
**A.** 0.65 ± 0.04 %ID/g

**Q.** What about the tissue uptake at 1 h (Ex vivo biodistribution; read-out: Muscle uptake) of the same compound?
**A.** 0.21 ± 0.05 %ID/g

**Q.** What about the tissue uptake at 1 h (Ex vivo biodistribution; read-out: Pancreas uptake) of the same compound?
**A.** 0.16 ± 0.01 %ID/g

**Q.** What about the tissue uptake at 1 h (Ex vivo biodistribution; [2]) of the same compound?
**A.** 0.15 ± 0.03 %ID/g

**Q.** And the tissue uptake at 1 h (Ex vivo biodistribution; read-out: Tumor uptake)?
**A.** 4.68 ± 0.25 %ID/g

**Q.** And the tissue to tissue ratio at 1 h (Ex vivo biodistribution; read-out: Tumor/Muscle ratio)?
**A.** 25.8 ± 6.71

**Q.** What about the tissue to tissue ratio at 1 h (Ex vivo biodistribution; read-out: Tumor/Pancreas ratio) of the same compound?
**A.** 28.8 ± 0.97

**Q.** What about the tissue to tissue ratio at 1 h (Ex vivo biodistribution; read-out: Tumor/blood ratio) of the same compound?
**A.** 9.86 ± 1.1

**Q.** And the tissue uptake at 1.5 h (Ex vivo biodistribution; read-out: Blood uptake)?
**A.** 1.18 ± 0.27 %ID/g

**Q.** What about the tissue uptake at 1.5 h (Ex vivo biodistribution; read-out: Brain uptake) of the same compound?
**A.** 0.05 ± 0.01 %ID/g

**Q.** What about the tissue uptake at 1.5 h (Ex vivo biodistribution; read-out: Femur uptake) of the same compound?
**A.** 0.68 ± 0.11 %ID/g

**Q.** And the tissue uptake at 1.5 h (Ex vivo biodistribution; read-out: Heart uptake)?
**A.** 0.76 ± 0.13 %ID/g

**Q.** And the tissue uptake at 1.5 h (Ex vivo biodistribution; read-out: Liver uptake)?
**A.** 0.9 ± 0.17 %ID/g

**Q.** What about the tissue uptake at 1.5 h (Ex vivo biodistribution; read-out: Lung uptake) of the same compound?
**A.** 1.4 ± 0.27 %ID/g

**Q.** What about the tissue uptake at 1.5 h (Ex vivo biodistribution; read-out: Muscle uptake) of the same compound?
**A.** 0.37 ± 0.11 %ID/g

**Q.** What about the tissue uptake at 1.5 h (Ex vivo biodistribution; read-out: Pancreas uptake) of the same compound?
**A.** 0.57 ± 0.15 %ID/g

**Q.** And the tissue uptake at 1.5 h (Ex vivo biodistribution; [2])?
**A.** 0.27 ± 0.06 %ID/g

**Q.** What about the tissue uptake at 1.5 h (Ex vivo biodistribution; read-out: Thymus uptake) of the same compound?
**A.** 1.64 ± 0.42 %ID/g

**Q.** And the tissue uptake at 1.5 h (Ex vivo biodistribution; read-out: Tumor uptake)?
**A.** 6.04 ± 1.46 %ID/g

**Q.** And the tissue to tissue ratio at 1.5 h (Ex vivo biodistribution; read-out: Tumor/Muscle ratio)?
**A.** 17 ± 2.11

**Q.** And the tissue to tissue ratio at 1.5 h (Ex vivo biodistribution; read-out: Tumor/Pancreas ratio)?
**A.** 10.7 ± 0.2

**Q.** And the tissue to tissue ratio at 1.5 h (Ex vivo biodistribution; read-out: Tumor/blood ratio)?
**A.** 5.43 ± 1.32

**Q.** What about the tissue uptake at 2 h (Ex vivo biodistribution; read-out: Blood uptake) of the same compound?
**A.** 0.9 ± 0.29 %ID/g

**Q.** And the tissue uptake at 2 h (Ex vivo biodistribution; read-out: Brain uptake)?
**A.** 0.05 ± 0.01 %ID/g

**Q.** And the tissue uptake at 2 h (Ex vivo biodistribution; read-out: Femur uptake)?
**A.** 0.83 ± 0.33 %ID/g

**Q.** What about the tissue uptake at 2 h (Ex vivo biodistribution; read-out: Heart uptake) of the same compound?
**A.** 0.68 ± 0.17 %ID/g

**Q.** What about the tissue uptake at 2 h (Ex vivo biodistribution; read-out: Liver uptake) of the same compound?
**A.** 0.84 ± 0.13 %ID/g

**Q.** What about the tissue uptake at 2 h (Ex vivo biodistribution; read-out: Lung uptake) of the same compound?
**A.** 1.15 ± 0.22 %ID/g
